Species on record: Rattus norvegicus
Experiment: Open TG-GATES - Regimen: Single
Format: toxicity, organism-based, Sprague-Dawley
Design: regimen Single, gender Male, age 6 weeks
Details: in vivo, po, route gavage; for APTT / Bas / Eos / Fbg / Hb / Ht / Lym / MCH / MCHC / MCV / Mono / Neu / PT / Plat / RBC / Ret / WBC: tissue Blood; for KIDNEY_L / KIDNEY_R / KIDNEY_TOTAL: tissue Kidney; for LIVER: tissue Liver; for A/G / ALP / ALT / AST / BUN / CRE / Ca / Cl / DBIL / GLC / IP / K / LDH / Na / PL / RALB / TBIL / TC / TG / TP / gamma-GTP: tissue Plasma
[1] = 0 mg/kg, 3 h, dose level Control
[2] = 0 mg/kg, 6 h, dose level Control
[3] = 0 mg/kg, 9 h, dose level Control
[4] = 0 mg/kg, 24 h, dose level Control

## O=c1ccc2ccccc2o1 [COUMARIN]
[1]
  TERMINAL_BW: 182.8 g
  APTT: 16.6 s
  Bas: 0%
  Eos: 0.6%
  Fbg: 205.4 mg/dL
  Hb: 13.5 g/dL
  Ht: 40%
  Lym: 83.8%
  MCH: 22.1 pg
  MCHC: 33.6%
  MCV: 65.8 fL
  Mono: 4.8%
  Neu: 11%
  PT: 12.3 s
  Plat: 106.1 x10_4/uL
  RBC: 608.6 x10_4/ul
  Ret: 8.9%
  WBC: 102.6 x10_2/uL
  KIDNEY_L: 0.8 g
  KIDNEY_R: 0.8 g
  KIDNEY_TOTAL: 1.7 g
  LIVER: 8.4 g
  A/G: 2.1
  ALP: 1014.2 IU/L
  ALT: 43 IU/L
  AST: 69.4 IU/L
  BUN: 11.2 mg/dL
  CRE: 0.5 mg/dL
  Ca: 10.9 mg/dL
  Cl: 104.8 meq/L
  DBIL: 0.026 mg/dL
  GLC: 189.4 mg/dL
  IP: 10.7 mg/dL
  K: 4.7 meq/L
  LDH: 76.6 IU/L
  Na: 138.6 meq/L
  PL: 158.2 mg/dL
  RALB: 4 g/dL
  TBIL: 0.3 mg/dL
  TC: 81.4 mg/dL
  TG: 99.4 mg/dL
  TP: 5.8 g/dL
  gamma-GTP: 1.6 IU/L
[2]
  TERMINAL_BW: 179.5 g
  APTT: 16.3 s
  Bas: 0%
  Eos: 0.8%
  Fbg: 205.8 mg/dL
  Hb: 13.5 g/dL
  Ht: 40.4%
  Lym: 75.4%
  MCH: 21.8 pg
  MCHC: 33.4%
  MCV: 65.4 fL
  Mono: 7.8%
  Neu: 16.6%
  PT: 12.4 s
  Plat: 108.2 x10_4/uL
  RBC: 617.2 x10_4/ul
  Ret: 9.3%
  WBC: 115.3 x10_2/uL
  KIDNEY_L: 0.8 g
  KIDNEY_R: 0.9 g
  KIDNEY_TOTAL: 1.7 g
  LIVER: 7.7 g
  A/G: 2.1
  ALP: 982 IU/L
  ALT: 36.4 IU/L
  AST: 66.6 IU/L
  BUN: 11.4 mg/dL
  CRE: 0.5 mg/dL
  Ca: 10.4 mg/dL
  Cl: 107.8 meq/L
  DBIL: 0.002 mg/dL
  GLC: 184.6 mg/dL
  IP: 11.3 mg/dL
  K: 5.4 meq/L
  LDH: 96.8 IU/L
  Na: 139.4 meq/L
  PL: 144.4 mg/dL
  RALB: 3.8 g/dL
  TBIL: 0.3 mg/dL
  TC: 82 mg/dL
  TG: 52.2 mg/dL
  TP: 5.6 g/dL
  gamma-GTP: 1.4 IU/L
[3]
  TERMINAL_BW: 180 g
  APTT: 16 s
  Bas: 0%
  Eos: 0.8%
  Fbg: 206.8 mg/dL
  Hb: 13.1 g/dL
  Ht: 39.4%
  Lym: 79.2%
  MCH: 21.9 pg
  MCHC: 33.3%
  MCV: 65.9 fL
  Mono: 6.4%
  Neu: 14%
  PT: 12.4 s
  Plat: 117.4 x10_4/uL
  RBC: 598.6 x10_4/ul
  Ret: 9.2%
  WBC: 106.8 x10_2/uL
  KIDNEY_L: 0.9 g
  KIDNEY_R: 0.9 g
  KIDNEY_TOTAL: 1.7 g
  LIVER: 7.4 g
  A/G: 2.1
  ALP: 975.8 IU/L
  ALT: 31.2 IU/L
  AST: 59.4 IU/L
  BUN: 12.4 mg/dL
  CRE: 0.5 mg/dL
  Ca: 10.7 mg/dL
  Cl: 106 meq/L
  DBIL: 0.022 mg/dL
  GLC: 190.8 mg/dL
  IP: 11 mg/dL
  K: 5.1 meq/L
  LDH: 82.2 IU/L
  Na: 138.2 meq/L
  PL: 139 mg/dL
  RALB: 3.7 g/dL
  TBIL: 0.3 mg/dL
  TC: 79.4 mg/dL
  TG: 36.6 mg/dL
  TP: 5.5 g/dL
  gamma-GTP: 1.6 IU/L
[4]
  TERMINAL_BW: 191.8 g
  APTT: 16.1 s
  Bas: 0%
  Eos: 0.8%
  Fbg: 205.4 mg/dL
  Hb: 13.2 g/dL
  Ht: 39.3%
  Lym: 77.2%
  MCH: 21.8 pg
  MCHC: 33.4%
  MCV: 65.1 fL
  Mono: 8.8%
  Neu: 13.6%
  PT: 12.5 s
  Plat: 106.5 x10_4/uL
  RBC: 604.2 x10_4/ul
  Ret: 8.3%
  WBC: 132 x10_2/uL
  KIDNEY_L: 0.9 g
  KIDNEY_R: 0.9 g
  KIDNEY_TOTAL: 1.8 g
  LIVER: 9 g
  A/G: 1.9
  ALP: 985.2 IU/L
  ALT: 37 IU/L
  AST: 64.4 IU/L
  BUN: 16.2 mg/dL
  CRE: 0.5 mg/dL
  Ca: 10.8 mg/dL
  Cl: 105.4 meq/L
  DBIL: 0 mg/dL
  GLC: 184.4 mg/dL
  IP: 7.9 mg/dL
  K: 5.5 meq/L
  LDH: 92.6 IU/L
  Na: 137.8 meq/L
  PL: 138 mg/dL
  RALB: 3.7 g/dL
  TBIL: 0.3 mg/dL
  TC: 76 mg/dL
  TG: 82.8 mg/dL
  TP: 5.6 g/dL
  gamma-GTP: 1.2 IU/L
15 mg/kg, 3 h, dose level Low
  TERMINAL_BW: 178.4 g
  APTT: 16.5 s
  Bas: 0%
  Eos: 1%
  Fbg: 205.2 mg/dL
  Hb: 13.6 g/dL
  Ht: 40.8%
  Lym: 82.2%
  MCH: 21.3 pg
  MCHC: 33.4%
  MCV: 63.7 fL
  Mono: 3.8%
  Neu: 13.4%
  PT: 12.4 s
  Plat: 97.1 x10_4/uL
  RBC: 640 x10_4/ul
  Ret: 8.2%
  WBC: 97 x10_2/uL
  KIDNEY_L: 0.8 g
  KIDNEY_R: 0.8 g
  KIDNEY_TOTAL: 1.7 g
  LIVER: 8 g
  A/G: 2
  ALP: 1069.4 IU/L
  ALT: 41.6 IU/L
  AST: 71.8 IU/L
  BUN: 10.2 mg/dL
  CRE: 0.4 mg/dL
  Ca: 10.6 mg/dL
  Cl: 105.6 meq/L
  DBIL: 0.006 mg/dL
  GLC: 182.4 mg/dL
  IP: 10.4 mg/dL
  K: 4.7 meq/L
  LDH: 84.8 IU/L
  Na: 138 meq/L
  PL: 161.6 mg/dL
  RALB: 3.9 g/dL
  TBIL: 0.4 mg/dL
  TC: 86 mg/dL
  TG: 115 mg/dL
  TP: 5.9 g/dL
  gamma-GTP: 1.4 IU/L
15 mg/kg, 6 h, dose level Low
  TERMINAL_BW: 180.2 g
  APTT: 16.4 s
  Bas: 0%
  Eos: 1.2%
  Fbg: 189.2 mg/dL
  Hb: 13.5 g/dL
  Ht: 40.5%
  Lym: 76%
  MCH: 21.9 pg
  MCHC: 33.2%
  MCV: 65.9 fL
  Mono: 5%
  Neu: 18.4%
  PT: 12.5 s
  Plat: 109.6 x10_4/uL
  RBC: 614.6 x10_4/ul
  Ret: 9.4%
  WBC: 95.4 x10_2/uL
  KIDNEY_L: 0.8 g
  KIDNEY_R: 0.8 g
  KIDNEY_TOTAL: 1.7 g
  LIVER: 8 g
  A/G: 2.1
  ALP: 872 IU/L
  ALT: 33.6 IU/L
  AST: 65 IU/L
  BUN: 9 mg/dL
  CRE: 0.4 mg/dL
  Ca: 10.3 mg/dL
  Cl: 107.2 meq/L
  DBIL: 0.004 mg/dL
  GLC: 189.6 mg/dL
  IP: 10.4 mg/dL
  K: 5.2 meq/L
  LDH: 88 IU/L
  Na: 138 meq/L
  PL: 136 mg/dL
  RALB: 3.7 g/dL
  TBIL: 0.3 mg/dL
  TC: 75.2 mg/dL
  TG: 63 mg/dL
  TP: 5.5 g/dL
  gamma-GTP: 1.2 IU/L
15 mg/kg, 9 h, dose level Low
  TERMINAL_BW: 177.8 g
  APTT: 16.1 s
  Bas: 0%
  Eos: 0.8%
  Fbg: 198.2 mg/dL
  Hb: 13.2 g/dL
  Ht: 40.1%
  Lym: 78.2%
  MCH: 22 pg
  MCHC: 33%
  MCV: 66.6 fL
  Mono: 6.4%
  Neu: 14.6%
  PT: 12.3 s
  Plat: 103 x10_4/uL
  RBC: 602 x10_4/ul
  Ret: 8.7%
  WBC: 85.8 x10_2/uL
  KIDNEY_L: 0.8 g
  KIDNEY_R: 0.9 g
  KIDNEY_TOTAL: 1.7 g
  LIVER: 7.2 g
  A/G: 2.3
  ALP: 849 IU/L
  ALT: 30.6 IU/L
  AST: 62 IU/L
  BUN: 9.8 mg/dL
  CRE: 0.5 mg/dL
  Ca: 10.6 mg/dL
  Cl: 106.8 meq/L
  DBIL: 0.03 mg/dL
  GLC: 195 mg/dL
  IP: 11.6 mg/dL
  K: 5.1 meq/L
  LDH: 102 IU/L
  Na: 139.4 meq/L
  PL: 141 mg/dL
  RALB: 3.8 g/dL
  TBIL: 0.3 mg/dL
  TC: 81.4 mg/dL
  TG: 37.4 mg/dL
  TP: 5.5 g/dL
  gamma-GTP: 1.2 IU/L
15 mg/kg, 24 h, dose level Low
  TERMINAL_BW: 189.8 g
  APTT: 15.7 s
  Bas: 0%
  Eos: 1%
  Fbg: 208.2 mg/dL
  Hb: 13.2 g/dL
  Ht: 39.7%
  Lym: 74.2%
  MCH: 22.3 pg
  MCHC: 33.3%
  MCV: 66.9 fL
  Mono: 10.6%
  Neu: 14.2%
  PT: 12.2 s
  Plat: 102.6 x10_4/uL
  RBC: 594.2 x10_4/ul
  Ret: 8.2%
  WBC: 102.3 x10_2/uL
  KIDNEY_L: 0.9 g
  KIDNEY_R: 0.9 g
  KIDNEY_TOTAL: 1.8 g
  LIVER: 9.3 g
  A/G: 2.1
  ALP: 972.2 IU/L
  ALT: 43 IU/L
  AST: 68.2 IU/L
  BUN: 14 mg/dL
  CRE: 0.5 mg/dL
  Ca: 10.9 mg/dL
  Cl: 106.2 meq/L
  DBIL: 0.01 mg/dL
  GLC: 190.8 mg/dL
  IP: 8.4 mg/dL
  K: 5.2 meq/L
  LDH: 97.4 IU/L
  Na: 137.8 meq/L
  PL: 140.4 mg/dL
  RALB: 3.8 g/dL
  TBIL: 0.3 mg/dL
  TC: 76.8 mg/dL
  TG: 77.2 mg/dL
  TP: 5.7 g/dL
  gamma-GTP: 1 IU/L

— ChEMBL document CHEMBL3885861, “Open TG-GATES”
